Experimental data published in PubChem BioAssay (NCI).
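Assay format: 96-well plates, 48-hour exposure. Abbreviation: GI50, concentration required for 50% inhibition of growth. TGI: total growth inhibition.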

What was measured:
Assay in all cases: NCI-60 cell line screen, 48 h
SK-MEL-5 melanoma = tested on: SK-MEL-5 melanoma
NCI-H460 lung = tested on: NCI-H460 lung
RPMI-8226 leukemia = tested on: RPMI-8226 leukemia
TK-10 renal = tested on: TK-10 renal
SK-OV-3 ovarian = tested on: SK-OV-3 ovarian
COLO 205 colon = tested on: COLO 205 colon
HCC-2998 colon = tested on: HCC-2998 colon
MDA-MB-231 breast = tested on: MDA-MB-231 breast
LOX IMVI melanoma = tested on: LOX IMVI melanoma
OVCAR-3 ovarian = tested on: OVCAR-3 ovarian
NCI-H522 lung = tested on: NCI-H522 lung
UO-31 renal = tested on: UO-31 renal
HCT-15 colon = tested on: HCT-15 colon
U251 CNS = tested on: U251 CNS
SNB-75 CNS = tested on: SNB-75 CNS
UACC-62 melanoma = tested on: UACC-62 melanoma
PC-3 prostate = tested on: PC-3 prostate
SW-620 colon = tested on: SW-620 colon
M14 melanoma = tested on: M14 melanoma
MCF7 breast = tested on: MCF7 breast
SF-295 CNS = tested on: SF-295 CNS
SK-MEL-28 melanoma = tested on: SK-MEL-28 melanoma
786-0 renal = tested on: 786-0 renal
MDA-MB-435 = tested on: MDA-MB-435
HL-60(TB) leukemia = tested on: HL-60(TB) leukemia
T-47D breast = tested on: T-47D breast
SK-MEL-2 melanoma = tested on: SK-MEL-2 melanoma
EKVX NSCLC = tested on: EKVX NSCLC
A498 renal = tested on: A498 renal
K-562 leukemia = tested on: K-562 leukemia
UACC-257 melanoma = tested on: UACC-257 melanoma
MALME-3M melanoma = tested on: MALME-3M melanoma
HCT-116 colon = tested on: HCT-116 colon
SF-268 CNS = tested on: SF-268 CNS
HS 578T breast = tested on: HS 578T breast
MOLT-4 leukemia = tested on: MOLT-4 leukemia
OVCAR-5 ovarian = tested on: OVCAR-5 ovarian
NCI-H226 lung = tested on: NCI-H226 lung
HOP-92 NSCLC = tested on: HOP-92 NSCLC
HOP-62 NSCLC = tested on: HOP-62 NSCLC
A549 NSCLC = tested on: A549 NSCLC
SN12C renal = tested on: SN12C renal
KM12 colon = tested on: KM12 colon
IGROV1 ovarian = tested on: IGROV1 ovarian
NCI-H23 lung = tested on: NCI-H23 lung
OVCAR-8 ovarian = tested on: OVCAR-8 ovarian
OVCAR-4 ovarian = tested on: OVCAR-4 ovarian
SR leukemia = tested on: SR leukemia
SNB-19 CNS = tested on: SNB-19 CNS
ACHN renal = tested on: ACHN renal
BT-549 breast = tested on: BT-549 breast
HT29 colon = tested on: HT29 colon
NCI/ADR-RES ovarian = tested on: NCI/ADR-RES ovarian
CCRF-CEM leukemia = tested on: CCRF-CEM leukemia
SF-539 CNS = tested on: SF-539 CNS
DU-145 prostate = tested on: DU-145 prostate
CAKI-1 renal = tested on: CAKI-1 renal

COc1cccc2c1c(C(=O)C(=O)Nc1cc(C)no1)cn2Cc1ccc(F)cc1
GI50 (SK-MEL-5 melanoma): 3.08 µM
TGI (SK-MEL-5 melanoma): 25.6 µM
GI50 (NCI-H460 lung): 5.15 µM
TGI (NCI-H460 lung): 46.9 µM
GI50 (RPMI-8226 leukemia): 2.11 µM
TGI (RPMI-8226 leukemia): > 24.2 µM
GI50 (TK-10 renal): 15.3 µM
TGI (TK-10 renal): > 100 µM
GI50 (SK-OV-3 ovarian): 31.4 µM
TGI (SK-OV-3 ovarian): > 100 µM
GI50 (COLO 205 colon): 13.8 µM
TGI (COLO 205 colon): 53 µM
GI50 (HCC-2998 colon): 37 µM
TGI (HCC-2998 colon): > 100 µM
GI50 (MDA-MB-231 breast): 5.41 µM
TGI (MDA-MB-231 breast): > 100 µM
GI50 (LOX IMVI melanoma): 7.87 µM
TGI (LOX IMVI melanoma): > 100 µM
GI50 (OVCAR-3 ovarian): 2.62 µM
TGI (OVCAR-3 ovarian): > 27.3 µM
GI50 (NCI-H522 lung): 8.51 µM
TGI (NCI-H522 lung): > 100 µM
GI50 (UO-31 renal): 8.77 µM
TGI (UO-31 renal): > 100 µM
GI50 (HCT-15 colon): 2.64 µM
TGI (HCT-15 colon): > 100 µM
GI50 (U251 CNS): 4.78 µM
TGI (U251 CNS): > 100 µM
GI50 (SNB-75 CNS): 3.42 µM
TGI (SNB-75 CNS): > 73.5 µM
GI50 (UACC-62 melanoma): 3.29 µM
TGI (UACC-62 melanoma): > 100 µM
GI50 (PC-3 prostate): 11 µM
TGI (PC-3 prostate): > 84.9 µM
GI50 (SW-620 colon): 3.68 µM
TGI (SW-620 colon): > 100 µM
GI50 (M14 melanoma): 5.42 µM
TGI (M14 melanoma): > 79.9 µM
GI50 (MCF7 breast): 3.27 µM
TGI (MCF7 breast): > 90.6 µM
GI50 (SF-295 CNS): 6.26 µM
TGI (SF-295 CNS): > 100 µM
GI50 (SK-MEL-28 melanoma): 7.59 µM
TGI (SK-MEL-28 melanoma): > 89.6 µM
GI50 (786-0 renal): 19.2 µM
TGI (786-0 renal): > 100 µM
GI50 (MDA-MB-435): 1.08 µM
TGI (MDA-MB-435): 3.64 µM
GI50 (HL-60(TB) leukemia): 2.2 µM
TGI (HL-60(TB) leukemia): > 20.2 µM
GI50 (T-47D breast): 5.17 µM
TGI (T-47D breast): > 100 µM
GI50 (SK-MEL-2 melanoma): 8.48 µM
TGI (SK-MEL-2 melanoma): > 87.3 µM
GI50 (EKVX NSCLC): 32.6 µM
TGI (EKVX NSCLC): > 100 µM
GI50 (A498 renal): 19.6 µM
TGI (A498 renal): > 67.5 µM
GI50 (K-562 leukemia): 1.91 µM
TGI (K-562 leukemia): > 36.5 µM
GI50 (UACC-257 melanoma): 9.25 µM
TGI (UACC-257 melanoma): 71.8 µM
GI50 (MALME-3M melanoma): 93.2 µM
TGI (MALME-3M melanoma): > 100 µM
GI50 (HCT-116 colon): 5.58 µM
TGI (HCT-116 colon): > 64.1 µM
GI50 (SF-268 CNS): 8.73 µM
TGI (SF-268 CNS): > 100 µM
GI50 (HS 578T breast): 3.47 µM
TGI (HS 578T breast): > 56.9 µM
GI50 (MOLT-4 leukemia): 3.99 µM
TGI (MOLT-4 leukemia): > 60.7 µM
GI50 (OVCAR-5 ovarian): > 55.5 µM
TGI (OVCAR-5 ovarian): > 100 µM
GI50 (NCI-H226 lung): 36.2 µM
TGI (NCI-H226 lung): > 100 µM
GI50 (HOP-92 NSCLC): 14.2 µM
TGI (HOP-92 NSCLC): > 66 µM
GI50 (HOP-62 NSCLC): > 35.9 µM
TGI (HOP-62 NSCLC): > 100 µM
GI50 (A549 NSCLC): 23.8 µM
TGI (A549 NSCLC): > 100 µM
GI50 (SN12C renal): 8.28 µM
TGI (SN12C renal): > 81.8 µM
GI50 (KM12 colon): 2.19 µM
TGI (KM12 colon): > 44.4 µM
GI50 (IGROV1 ovarian): 3.68 µM
TGI (IGROV1 ovarian): > 45.8 µM
GI50 (NCI-H23 lung): > 40.5 µM
TGI (NCI-H23 lung): > 84 µM
GI50 (OVCAR-8 ovarian): 25.2 µM
TGI (OVCAR-8 ovarian): > 100 µM
GI50 (OVCAR-4 ovarian): 24 µM
TGI (OVCAR-4 ovarian): > 100 µM
GI50 (SR leukemia): 0.573 µM
TGI (SR leukemia): > 100 µM
GI50 (SNB-19 CNS): 10.1 µM
TGI (SNB-19 CNS): > 100 µM
GI50 (ACHN renal): 15.4 µM
TGI (ACHN renal): > 100 µM
GI50 (BT-549 breast): 5.36 µM
TGI (BT-549 breast): > 100 µM
GI50 (HT29 colon): 3.32 µM
TGI (HT29 colon): > 100 µM
GI50 (NCI/ADR-RES ovarian): 3.78 µM
TGI (NCI/ADR-RES ovarian): > 24 µM
GI50 (CCRF-CEM leukemia): 6.24 µM
TGI (CCRF-CEM leukemia): > 100 µM
GI50 (SF-539 CNS): 7.52 µM
TGI (SF-539 CNS): > 80 µM
GI50 (DU-145 prostate): 19.4 µM
TGI (DU-145 prostate): > 100 µM
GI50 (CAKI-1 renal): 5.92 µM
TGI (CAKI-1 renal): > 45.4 µM
